Measured values from ChEMBL document CHEMBL1201862, “PubChem BioAssay data set” (2004).
Active and inactive are the calls of the source.

Assays:
[1] = biological target: Fructose-bisphosphate aldolase (Mycobacterium tuberculosis, UniProt P9WQA3); test: Fluorescence-based biochemical high throughput dose response assay for inhibitors of the fructose-bisphosphate aldolase (FBA) of M. tuberculosis.; assay type: functional
[2] = blockers of HIV-1 envelope-mediated cell-cell fusion – cherry-pick, dose response (AID 652057); assay type: functional, cell-based
[3] = viability loss in CEM21 cells – cell-based, CellTiter-Glo luminescence, cherry-picked, cytotoxicity control for viral fusion inhibitor project, dose response (AID 652042); assay type: functional;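 note: potency for signal decrease meaning cytotoxicity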
cells [4] = assay type: functional, cell-based
[5] = biological target: T1, Trace amine-associated receptor 1 (Homo sapiens, UniProt Q96RJ0); test: Fluorescence-based cell-based high throughput dose response assay to identify agonists of the human trace amine associated receptor 1 (TAAR1).; assay type: functional
T1 sequence (Q96RJ0 whole entry): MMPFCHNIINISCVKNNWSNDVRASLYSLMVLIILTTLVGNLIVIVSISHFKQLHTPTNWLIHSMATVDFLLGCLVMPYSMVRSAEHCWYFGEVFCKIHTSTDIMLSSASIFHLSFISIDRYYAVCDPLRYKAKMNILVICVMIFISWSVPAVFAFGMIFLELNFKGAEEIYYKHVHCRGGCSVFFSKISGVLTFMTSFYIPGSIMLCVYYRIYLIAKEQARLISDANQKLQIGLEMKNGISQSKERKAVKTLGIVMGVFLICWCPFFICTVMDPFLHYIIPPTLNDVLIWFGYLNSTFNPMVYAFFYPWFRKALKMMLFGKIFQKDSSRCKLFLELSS

[6] = biological target: T1, Trace amine-associated receptor 1; test: Counterscreen for agonists of the human trace amine associated receptor 1 (hTAAR1): Fluorescence-based cell-based high throughput dose response assay to identify hTAAR1 agonist that also desensitize TAAR1 receptor response.; assay type: functional
cells [7] = assay type: functional, cell-based; remark: listed apart in the source
[8] = test system: Streptococcus sp. 'group A'; test: Streptococcus pyogenes SK(-)GAS viability under kanamycin – luminescence, BacTiterGlo, confirmation, counter-screen for streptokinase expression inhibitor project, dose response (AID 1900); assay type: functional, organism-based
Streptokinase A = biological target: T2, Streptokinase A (Streptococcus pyogenes serotype M1, UniProt P10520); test: viability-normalized secreted streptokinase activity reduction – plasminogen activation absorbance, OD405, dose response (AID 1914); assay type: functional, Streptococcus pyogenes M1 GAS;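 note: secreted streptokinase activity via plasminogen activation per viability signal from cell pellet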
T2 sequence (P10520 whole entry): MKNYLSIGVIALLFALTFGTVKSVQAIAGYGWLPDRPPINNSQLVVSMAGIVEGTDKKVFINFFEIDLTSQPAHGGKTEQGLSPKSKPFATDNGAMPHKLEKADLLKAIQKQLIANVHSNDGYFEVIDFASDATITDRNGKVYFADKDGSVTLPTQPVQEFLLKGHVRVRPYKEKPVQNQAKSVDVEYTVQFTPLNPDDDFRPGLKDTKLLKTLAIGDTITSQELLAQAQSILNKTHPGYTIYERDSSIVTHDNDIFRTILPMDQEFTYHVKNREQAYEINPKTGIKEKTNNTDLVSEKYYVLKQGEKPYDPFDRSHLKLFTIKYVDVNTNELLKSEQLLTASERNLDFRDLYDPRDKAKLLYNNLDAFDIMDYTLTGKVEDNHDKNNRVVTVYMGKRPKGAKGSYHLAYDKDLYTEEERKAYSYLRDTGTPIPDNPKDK

Streptococcus = test: GAS UMAA2166 growth inhibition – luminescence, BacTiterGlo, counter-screen for streptokinase expression inhibitor project, dose response (AID 1915); assay type: functional, organism-based;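 note: potency for reduction of bacterial viability or growth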
Cysteine protease ATG4B = biological target: T3, Cysteine protease ATG4B (Homo sapiens, UniProt Q9Y4P1); assay type: functional;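 note: Fluorescence-based dose-response confirmation assay measuring inhibition of ATG4B activity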
T3 sequence (Q9Y4P1 whole entry): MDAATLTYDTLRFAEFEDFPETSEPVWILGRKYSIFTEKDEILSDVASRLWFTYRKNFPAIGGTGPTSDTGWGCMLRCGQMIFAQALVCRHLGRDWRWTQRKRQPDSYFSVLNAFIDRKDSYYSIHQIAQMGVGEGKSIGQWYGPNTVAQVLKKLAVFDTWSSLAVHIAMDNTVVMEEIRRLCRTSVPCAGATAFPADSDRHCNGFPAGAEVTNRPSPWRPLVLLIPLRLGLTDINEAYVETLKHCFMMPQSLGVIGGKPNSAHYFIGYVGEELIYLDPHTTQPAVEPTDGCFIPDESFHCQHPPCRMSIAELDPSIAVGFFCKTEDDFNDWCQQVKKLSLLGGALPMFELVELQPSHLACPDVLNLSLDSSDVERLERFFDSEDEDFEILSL

Phospholipase A2 = Phospholipase A2 (Homo sapiens, UniProt P04054); assay type: functional;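 note: confirmatory dose-response counterscreen on phospholipase A2, testing hits that came from an ultra-high-throughput screen for ATG4B inhibitors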
Chain of Phospholipase A2 (P04054 whole entry, the tested form may be a part): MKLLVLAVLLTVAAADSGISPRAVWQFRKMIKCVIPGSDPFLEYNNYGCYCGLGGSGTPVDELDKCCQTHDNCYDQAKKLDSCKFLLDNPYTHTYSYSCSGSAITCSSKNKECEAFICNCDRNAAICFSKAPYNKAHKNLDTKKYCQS

[9] = biological target: T4, Sentrin-specific protease 1 (Homo sapiens, UniProt Q9P0U3); test: SENP1 catalytic domain blockers, concentration series – biochemical, kinetic FRET, dose response (AID 651697); assay type: functional; settings: read-out: IC50_Mean
T4 sequence (Q9P0U3 whole entry): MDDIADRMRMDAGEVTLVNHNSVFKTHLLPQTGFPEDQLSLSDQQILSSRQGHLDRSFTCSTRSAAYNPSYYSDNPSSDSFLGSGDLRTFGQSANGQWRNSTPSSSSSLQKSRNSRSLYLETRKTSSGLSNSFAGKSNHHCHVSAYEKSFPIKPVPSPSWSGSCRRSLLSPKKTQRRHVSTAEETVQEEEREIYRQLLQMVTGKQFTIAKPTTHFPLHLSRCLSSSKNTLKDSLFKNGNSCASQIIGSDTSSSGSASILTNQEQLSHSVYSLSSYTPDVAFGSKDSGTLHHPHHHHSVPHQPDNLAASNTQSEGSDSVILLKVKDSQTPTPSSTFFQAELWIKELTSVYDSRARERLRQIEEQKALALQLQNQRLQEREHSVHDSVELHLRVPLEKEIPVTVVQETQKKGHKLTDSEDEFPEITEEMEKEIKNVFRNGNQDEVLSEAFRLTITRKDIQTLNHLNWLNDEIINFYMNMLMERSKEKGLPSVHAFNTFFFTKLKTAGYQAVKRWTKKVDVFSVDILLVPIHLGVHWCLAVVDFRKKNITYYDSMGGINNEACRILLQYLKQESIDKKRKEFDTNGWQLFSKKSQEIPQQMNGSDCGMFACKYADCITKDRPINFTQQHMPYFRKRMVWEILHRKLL

[10] = biological target: T4, Sentrin-specific protease 1; test: Dose response confirmation of small molecule inhibitors of the catalytic domain of the SUMO protease, SENP1 in a FRET assay.; assay type: functional; settings: read-out: IC50_Mean
Cytochrome P450 1A2 = biological target: T5, Cytochrome P450 1A2 (Homo sapiens, UniProt P05177);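 note: PubChem cytochrome P450 panel assay, CYP1A2 panel member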
T5 sequence (P05177 whole entry): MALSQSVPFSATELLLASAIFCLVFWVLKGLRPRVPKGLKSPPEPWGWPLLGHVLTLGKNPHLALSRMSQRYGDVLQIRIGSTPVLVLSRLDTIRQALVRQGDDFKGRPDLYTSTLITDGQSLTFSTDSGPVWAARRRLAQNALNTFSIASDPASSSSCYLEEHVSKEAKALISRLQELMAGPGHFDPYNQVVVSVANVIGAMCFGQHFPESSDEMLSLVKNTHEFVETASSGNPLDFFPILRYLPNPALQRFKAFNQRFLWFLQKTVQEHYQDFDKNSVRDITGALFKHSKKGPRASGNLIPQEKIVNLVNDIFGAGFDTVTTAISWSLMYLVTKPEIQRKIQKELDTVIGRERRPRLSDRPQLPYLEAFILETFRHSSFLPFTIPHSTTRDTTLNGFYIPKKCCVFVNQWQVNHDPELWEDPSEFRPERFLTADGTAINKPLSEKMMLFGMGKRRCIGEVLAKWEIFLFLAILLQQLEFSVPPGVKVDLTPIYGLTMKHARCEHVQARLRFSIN

Large T antigen = Large T antigen (Simian virus 40, UniProt P03070); assay type: functional, Betapolyomavirus macacae;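 note: Confirmatory-stage PubChem screen for compounds that inhibit SV40 T antigen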
Chain of Large T antigen (P03070 whole entry): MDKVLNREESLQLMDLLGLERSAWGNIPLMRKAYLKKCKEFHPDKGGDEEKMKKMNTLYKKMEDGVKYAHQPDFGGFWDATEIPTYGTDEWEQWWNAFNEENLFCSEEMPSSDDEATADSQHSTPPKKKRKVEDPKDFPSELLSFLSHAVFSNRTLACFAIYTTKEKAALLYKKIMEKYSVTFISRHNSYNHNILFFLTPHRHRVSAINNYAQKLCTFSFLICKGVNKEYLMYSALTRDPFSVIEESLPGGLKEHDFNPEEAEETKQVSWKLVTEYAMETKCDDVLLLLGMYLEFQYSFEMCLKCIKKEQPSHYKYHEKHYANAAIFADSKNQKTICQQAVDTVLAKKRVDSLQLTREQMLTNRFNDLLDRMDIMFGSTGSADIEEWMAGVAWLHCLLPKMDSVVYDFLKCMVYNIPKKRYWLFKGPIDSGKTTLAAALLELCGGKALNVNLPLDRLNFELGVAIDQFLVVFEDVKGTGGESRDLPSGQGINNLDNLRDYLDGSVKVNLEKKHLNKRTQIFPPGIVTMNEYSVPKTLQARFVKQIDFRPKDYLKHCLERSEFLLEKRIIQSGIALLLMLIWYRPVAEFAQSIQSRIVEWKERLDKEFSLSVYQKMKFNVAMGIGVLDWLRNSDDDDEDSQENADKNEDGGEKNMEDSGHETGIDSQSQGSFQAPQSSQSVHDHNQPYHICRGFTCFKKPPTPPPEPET

[11] = biological target: T6, DNA repair and recombination protein RAD54-like (Homo sapiens, UniProt Q92698); test: RAD54 Holliday junction migration blockers – biochemical, fluorescence, cherry-picked samples, dose series, confirmation (AID 651657); assay type: functional
T6 sequence (Q92698 whole entry): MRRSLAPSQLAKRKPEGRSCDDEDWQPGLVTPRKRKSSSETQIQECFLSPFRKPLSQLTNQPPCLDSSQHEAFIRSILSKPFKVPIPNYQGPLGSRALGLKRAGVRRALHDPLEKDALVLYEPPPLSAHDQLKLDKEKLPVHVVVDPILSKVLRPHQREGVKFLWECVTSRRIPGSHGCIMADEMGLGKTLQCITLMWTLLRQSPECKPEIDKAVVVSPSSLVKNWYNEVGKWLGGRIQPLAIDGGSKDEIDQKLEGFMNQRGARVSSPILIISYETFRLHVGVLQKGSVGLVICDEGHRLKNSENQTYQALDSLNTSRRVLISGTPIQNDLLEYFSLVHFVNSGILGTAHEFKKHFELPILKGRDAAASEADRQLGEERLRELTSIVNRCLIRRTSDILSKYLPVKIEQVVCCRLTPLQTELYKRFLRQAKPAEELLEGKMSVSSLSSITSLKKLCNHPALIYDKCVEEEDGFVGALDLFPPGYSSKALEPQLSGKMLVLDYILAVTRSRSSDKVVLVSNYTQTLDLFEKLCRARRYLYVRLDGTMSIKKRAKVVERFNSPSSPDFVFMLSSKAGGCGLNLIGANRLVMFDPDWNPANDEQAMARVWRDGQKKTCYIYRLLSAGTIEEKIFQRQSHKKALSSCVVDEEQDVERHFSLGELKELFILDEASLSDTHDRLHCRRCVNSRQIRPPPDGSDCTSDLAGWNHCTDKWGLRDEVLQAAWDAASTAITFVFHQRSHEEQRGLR

INS1 = test: INS-1E survival protection against cytokine death – cell-based, luminescence, retest, dose response (AID 449756); assay type: functional; settings: Rattus norvegicus;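 note: cell death triggered by IL-1 beta plus TNF-alpha plus IFN-gamma mixture; protective hits raise ATP signal compared with cytokine alone wells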
[12] = viability loss in HeLa cells – cytotoxicity control for MgcRacGAP inhibitor project, dose response (AID 624300); assay type: functional
[13] = biological target: T7, Rac GTPase-activating protein 1 (Homo sapiens, UniProt Q9H0H5); test: blockers of MgcRacGAP-driven Rac1 GTP hydrolysis – biochemical, ADP Hunter fluorescence, primary and confirmatory, confirmation (AID 624330); assay type: functional
T7 sequence (Q9H0H5 whole entry): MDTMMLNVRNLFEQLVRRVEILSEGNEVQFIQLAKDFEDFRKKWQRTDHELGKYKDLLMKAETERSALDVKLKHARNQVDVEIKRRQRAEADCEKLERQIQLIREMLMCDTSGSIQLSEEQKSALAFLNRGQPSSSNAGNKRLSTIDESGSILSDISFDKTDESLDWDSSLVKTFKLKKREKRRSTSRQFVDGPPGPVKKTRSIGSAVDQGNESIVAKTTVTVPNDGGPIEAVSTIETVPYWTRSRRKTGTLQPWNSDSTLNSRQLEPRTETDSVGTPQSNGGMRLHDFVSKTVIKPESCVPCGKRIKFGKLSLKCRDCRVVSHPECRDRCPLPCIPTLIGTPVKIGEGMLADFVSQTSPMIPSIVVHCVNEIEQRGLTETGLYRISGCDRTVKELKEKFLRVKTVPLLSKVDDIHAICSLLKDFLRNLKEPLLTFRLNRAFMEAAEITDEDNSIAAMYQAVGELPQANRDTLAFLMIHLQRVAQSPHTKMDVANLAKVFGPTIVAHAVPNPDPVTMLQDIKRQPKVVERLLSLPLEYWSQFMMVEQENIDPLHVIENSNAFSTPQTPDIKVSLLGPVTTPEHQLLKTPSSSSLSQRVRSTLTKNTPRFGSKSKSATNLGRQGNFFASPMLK

Chain of Fructose-bisphosphate aldolase (P9WQA3 whole entry, the tested form may be a part): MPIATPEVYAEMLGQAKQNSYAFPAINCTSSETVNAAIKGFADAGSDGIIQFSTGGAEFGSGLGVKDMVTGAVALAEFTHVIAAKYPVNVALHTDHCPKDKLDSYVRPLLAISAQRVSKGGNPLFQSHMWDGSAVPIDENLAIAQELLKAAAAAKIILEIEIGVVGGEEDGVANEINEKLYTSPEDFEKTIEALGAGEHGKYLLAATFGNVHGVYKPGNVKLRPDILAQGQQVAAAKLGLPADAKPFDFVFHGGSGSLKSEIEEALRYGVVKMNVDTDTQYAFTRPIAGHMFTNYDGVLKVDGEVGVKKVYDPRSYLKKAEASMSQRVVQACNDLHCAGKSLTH

## N#CCCN(C(=O)COc1ccc(F)cc1Br)c1ccccc1F
[1]
  IC50: > 9.99 µM (inactive)

## CCc1nc(N2CCCCC2)c2oc3ccccc3c2n1
[2]
  AC50: 30.8 µM (active)
[3]
  AC50: 41.8 µM (active)

## CCOc1ccc(C/C(=N/CCc2ccccc2)C2=C(O)CC(C)(C)CC2=O)cc1OCC
Cells [4]
  IC50: > 29.9 µM (inactive)
[5]
  EC50: 0.358 µM (active)
[6]
  IC50: 2.84 µM (active)
Cells [7]
  EC50: > 29.9 µM (inactive)

## CC(C)c1ccc2nc3sc(C(=O)N4CCc5ccccc5C4)c(N)c3cc2c1
[8]
  EC50: 25.6 µM (active)
Streptokinase A
  EC50: 101 µM (active)
Streptococcus
  EC50: > 150 µM (not active)
Cysteine protease ATG4B
  IC50: 7.08 µM (active)
Phospholipase A2
  IC50: 4.83 µM (active)
[9]
  IC50: 2.58 µM (active)
[10]
  IC50: 5.22 µM (active)
Cytochrome P450 1A2
  AC50: 11.2 µM (inconclusive)

## OCCNc1nc(Nc2ccc(O)cc2)nc2ccccc12
Large T antigen
  IC50: 4.5 µM (active)
[11]
  AC50: 38.6 µM (active)
Cells [4]
  IC50: > 29.9 µM (inactive)
[5]
  EC50: 0.578 µM (active)
[6]
  IC50: 1.64 µM (active)
Cells [7]
  EC50: > 29.9 µM (inactive)

## Cc1ccc2c(c1)[nH]c1c(N3CCN(Cc4ccccc4)CC3)ncnc12
INS1
  AC50: 3.89 µM (active)
[12]
  CC50: 57.9 µM (active)
[13]
  IC50: 47.8 µM (active)
